Experimental data from patent US6943268B2 (priority 1999, dated 2005).

What was measured:
[1] = tested on: L-selectin on neutrophils; format: cell-based, human
HIV = details: chlorpromazine: at the concentration of Table I; cited from earlier work
[2] = tested on: L-selectin on lymphocytes; format: cell-based, human
[3] = tested on: Mac-1 (CD18/CD11b) on neutrophils; format: cell-based, human

Molecule | approximate concentration for 100% LOSS of L-selectin from cell surface [1] | other results
[O-2].[O-2].[O-2].[Sb+3].[Sb+3] [Antimony (Sb203)] | ~50 µM | 
O=[As]O[As]=O (stereo not drawn) [Arsenic (As203)] | ~50 µM | 
NC(=O)N=NC(N)=O [Azodicarbonamide] | ~1 mM- | HIV infectivity (HIV): blocks HIV infectivity,
[Cl][Cd][Cl] [Cadmium (CdC12)] | ~1000 µM | 
CN(C)CCCN1c2ccccc2Sc2ccc(Cl)cc21 [Chlorpromazine] | ~50 mM- | effective concentrations for induction of L-selectin shedding [1]: 10 to 50 µM
Clc1ccc(C(c2ccc(Cl)cc2)C(Cl)(Cl)Cl)cc1 [DDT] | ~50 uM- | 
O=S(=O)(O)c1cc(N=C=S)ccc1C=Cc1ccc(N=C=S)cc1S(=O)(=O)O [DIDS] | ~200 uM- | 
O=C(O)c1cc(SSc2ccc([N+](=O)[O-])c(C(=O)O)c2)ccc1[N+](=O)[O-] [DTNB, 5′,5′-dithio-bis(2-nitrobenzoic acid)] | ~1 mM- | 
CN(C)C(=O)/N=N/C(=O)N(C)C [Diamide] | ~1 mM- | 
Cc1c(CBr)n2c(CBr)c(C)c(=O)n2c1=O [Dibromobimane bBBr, Dibromobimane] | ~100 um- | 
C1COCCO1 [Dioxane] |  | induction of L-selectin shedding (in words) [1]: itself induces L-selectin release
CCN(CC)C(=S)SSC(=S)N(CC)CC [Disulfiram (Antabuse), Disulfiram] | ~50 uM- | 
OO [Hydrogen peroxide] | ~150 uM- | 
NC(=O)CI [Iodoacetamide] | ~10 mM- | 
O=C(O)CI [Iodoacetate IA, Iodoacetate] | ~300 uM- | 
O=Ic1ccccc1C(=O)O [Iodosobenzoate] | ~1 mM- | 
COc1ccc(C(c2ccc(OC)cc2)C(Cl)(Cl)Cl)cc1 [Methoxychlor] | ~50 uM- | 
Cc1c(C)n2c(CBr)c(C)c(=O)n2c1=O [Monobromobimane mBBr, Monobromobimane] | ~100 uM- | 
CCN1C(=O)C=CC1=O [N-ethylmaleimide] | ~250 uM- | 
COc1cc(-c2ccc(-n3nc(-c4ccccc4)n[n+]3-c3ccc([N+](=O)[O-])cc3)c(OC)c2)ccc1-n1nc(-c2ccccc2)n[n+]1-c1ccc([N+](=O)[O-])cc1 [Nitroblue tetrazolium] | ~100 uM- | 
CCCCCCCCCCCCCC(=O)O[C@@H]1[C@@H](C)[C@@]2(O)[C@@H](C=C(CO)C[C@]3(O)C(=O)C(C)=C[C@@H]23)[C@@H]2C(C)(C)[C@]12OC(C)=O [PMA] |  | time for lymphocytes to shed L-selectin [2]: ~30 min
O=S(=O)(F)Cc1ccccc1 [PMSF] | ~1 mM- | 
CSCC[C@H](NC=O)C(=O)N[C@@H](CC(C)C)C(=O)N[C@@H](Cc1ccccc1)C(=O)O [fMLP, formyl-methionyl-leucyl-phenylalanine] |  | response of lymphocytes (L-selectin shedding) [2]: do not respond; cell surface L-selectin released [1]: at least 90%; increase of cell surface Mac-1 expression compared to the ice control [3]: 3-10 fold
Protein Disulfide Isomerase | ~20 ug/ml- | 
Thimerosal | ~500 um- | 
Thioredoxin | ~50 ug/ml- | 
